# Measured values: US20080090805A1, “CB-1 MODULATING COMPOUNDS AND THEIR USE” (ACADIA PHARMACEUTICALS INC., priority 2005, published 2008)
# Molecular target: native CB1 receptors (Rattus norvegicus, UniProt P20272)
# Assay: CB1 receptor rat binding assay ([3H]SR141716A, rat brain membranes)
# Conditions: rat brain membranes, [3H]SR141716A; for Ki: read-out: Binding rat pKi (converted)
# Chain of native CB1 receptors (P20272 whole entry): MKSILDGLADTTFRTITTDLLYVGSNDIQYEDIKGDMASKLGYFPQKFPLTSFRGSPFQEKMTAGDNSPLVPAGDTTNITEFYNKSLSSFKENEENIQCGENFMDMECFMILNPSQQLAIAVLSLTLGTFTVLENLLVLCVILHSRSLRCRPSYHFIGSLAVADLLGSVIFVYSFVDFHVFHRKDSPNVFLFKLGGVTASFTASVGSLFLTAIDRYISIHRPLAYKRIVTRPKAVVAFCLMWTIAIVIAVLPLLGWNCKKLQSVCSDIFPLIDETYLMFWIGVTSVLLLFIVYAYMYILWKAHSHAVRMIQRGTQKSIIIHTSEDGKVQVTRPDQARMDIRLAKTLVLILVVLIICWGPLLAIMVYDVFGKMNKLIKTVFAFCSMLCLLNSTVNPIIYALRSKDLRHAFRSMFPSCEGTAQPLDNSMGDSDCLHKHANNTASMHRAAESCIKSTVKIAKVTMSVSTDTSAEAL
SMILES,Ki,Binding rat Inh %
CCCCNC(=O)c1ccc2c(c1)N=C(c1ccc(Cl)cc1)c1ccccc1[S+]2[O-] (stereo not drawn) [drawing 1205],0.0126 µM,
Cc1csc(CNC(=O)c2ccc3c(c2)N=C(c2cccc(F)c2)c2ccccc2S3)c1 [drawing 1234],0.000794 µM,89%
COc1ccc(C2=Nc3cc(C(=O)NC4CCCC4)ccc3Sc3ccccc32)cc1 [drawing 1364],0.0316 µM,71%
O=C(NCCc1ccncc1)c1ccc2c(c1)N=C(c1ccc(Cl)s1)c1ccccc1S2 [drawing 1540],0.0126 µM,109%
CCCC1=Nc2cc(C(=O)NCCc3ccc(Cl)cc3)ccc2Sc2ccccc21 [drawing 1285],0.02 µM,
CCCCNC(=O)c1ccc2c(c1)N=C(c1ccc(Cl)cc1Cl)c1ccccc1S2 [drawing 1406],0.0398 µM,98%
CCCCNC(=O)c1ccc2c(c1)N=C(c1ccc(Cl)c(F)c1)c1ccccc1S2 [drawing 1274],0.002 µM,96%
O=C(NN1CCCCCC1)c1ccc2c(c1)N=C(c1ccccc1F)c1ccccc1S2 [drawing 1342],0.0251 µM,101%
CCCCNC(=O)c1ccc2c(c1)N=C(c1ccc(F)cc1)c1ccccc1S2 [drawing 1238],0.0158 µM,
CCCCNC(=O)c1ccc2c(c1)N=C(c1ccc(Cl)cc1)c1sccc1S2 [drawing 1247],0.001 µM,97%
CCCNC(=O)c1ccc2c(c1)N=C(c1ccc(Br)cc1)c1ccccc1S2 [drawing 1259],0.0158 µM,65%
O=C(NCc1ccccc1Cl)c1ccc2c(c1)N=C(c1ccccc1F)c1ccccc1S2 [drawing 1413],0.0398 µM,
CCCNC(=O)c1ccc2c(c1)N=C(c1ccc(Cl)s1)c1ccccc1S2 [drawing 1236],0.0158 µM,89%
Cc1ccc(CNC(=O)c2ccc3c(c2)N=C(c2ccsc2)c2ccccc2S3)o1 [drawing 1346],0.00398 µM,89%
O=C(NCc1ccco1)c1ccc2c(c1)N=C(c1cccc(F)c1)c1ccccc1S2 [drawing 1252],0.0158 µM,93%
O=C(NCc1ccc(Cl)cc1Cl)c1ccc2c(c1)N=C(N1CCCCC1)c1ccccc1S2 [drawing 1514],0.0794 µM,
CCCCNC(=O)c1ccc2c(c1)N=C(c1ccc(Cl)cn1)c1ccc(F)cc1S2 [drawing 1317],0.0251 µM,86%
CCCCNC(=O)c1cc2c(cc1C)Sc1ccccc1C(c1ccc(Cl)cc1)=N2 [drawing 1243],0.0158 µM,119%
O=C(NCc1ccccc1)c1ccc2c(c1)N=C(C1CCCCC1)c1ccccc1S2 [drawing 1343],0.00398 µM,
O=C(NCCc1ccccc1)c1ccc2c(c1)N=C(c1ccc(Cl)cc1)c1ccccc1S2 [drawing 1295],0.00251 µM,
CCCCNC(=O)c1ccc2c(c1)N=C(c1ccc(Cl)c(Cl)c1)c1ccccc1S2 [drawing 1311],0.00316 µM,94%
O=C(NCc1ccc(F)cc1)c1ccc2c(c1)N=C(c1ccc(Cl)cc1)c1ccccc1S2 [drawing 1287],0.002 µM,
O=C(NCc1ccccc1Cl)c1ccc2c(c1)N=C(c1ccc(F)cc1)c1ccccc1S2 [drawing 1291],0.02 µM,
CC(CNC(=O)c1ccc2c(c1)N=C(N1CCCCC1)c1ccccc1S2)c1ccccc1 (stereo not drawn) [drawing 1455],0.00794 µM,

SMILES,Ki,Binding rat Inh %
CCN(CCNC(=O)c1ccc2c(c1)N=C(c1ccccc1)c1ccccc1S2)c1ccccc1 [drawing 1245],0.0158 µM,
Cc1ccsc1C1=Nc2cc(C(=O)NCCCC(F)(F)F)ccc2Sc2ccccc21 [drawing 1225],0.000631 µM,109%
C[C@@H]1CCC[C@H](C)N1NC(=O)c1ccc2c(c1)N=C(c1ccc(Cl)cc1)c1ccccc1S2 [drawing 1396],0.0398 µM,94%
O=C(NCc1ccc(Cl)cc1Cl)c1ccc2c(c1)N=C(c1ccc(Cl)cc1)c1ccccc1S2 [drawing 1421],0.0398 µM,
CCN(CCNC(=O)c1ccc2c(c1)N=C(N1CCCCC1)c1ccccc1S2)c1ccccc1 [drawing 1439],0.00631 µM,
O=C(NC1CCC(F)(F)CC1)c1ccc2c(c1)N=C(c1ccccn1)c1ccccc1S2 [drawing 1414],0.0398 µM,73%
CC(C)CNC(=O)c1ccc2c(c1)N=C(c1ccc(Br)cc1)c1ccccc1S2 [drawing 1354],0.00398 µM,77%
O=C(NN1CCCCC1)c1ccc2c(c1)N=C(c1ccc(Cl)cn1)c1ccccc1S2 [drawing 1373],0.0316 µM,95%
O=C(NCc1cccc(Cl)c1)c1ccc2c(c1)N=C(c1cccc(Cl)c1)c1ccccc1S2 [drawing 1264],0.00158 µM,
Cc1ccc(CNC(=O)c2ccc3c(c2)N=C(c2cccc(F)c2)c2ccccc2S3)o1 [drawing 1481],0.01 µM,88%
O=C(NCCc1ccccc1)c1ccc2c(c1)N=C(c1ccccc1)c1ccccc1S2 [drawing 1332],0.0251 µM,
O=C(NCCC(F)(F)F)c1ccc2c(c1)N=C(c1ccc(F)cc1)c1ccccc1S2 [drawing 1418],0.00631 µM,105%
O=C(NN1CCCCC1)c1ccc2c(c1)N=C(c1cccc(F)c1)c1ccccc1S2 [drawing 1374],0.0316 µM,94%
O=C(NCc1ccccc1Cl)c1ccc2c(c1)N=C(c1ccccc1)c1ccccc1S2 [drawing 1324],0.0251 µM,
O=C(NCCc1ccc(Cl)cc1)c1ccc2c(c1)N=C(C1CCCCC1)c1ccccc1S2 [drawing 1280],0.002 µM,
CCN(CCNC(=O)c1ccc2c(c1)N=C(c1ccc(F)cc1)c1ccccc1S2)c1ccccc1 [drawing 1297],0.00251 µM,
O=C(NCc1ccccc1)c1ccc2c(c1)N=C(c1ccc(F)cc1)c1ccccc1S2 [drawing 1409],0.00631 µM,
CCCC1=Nc2cc(C(=O)NCC(C)c3ccccc3)ccc2Sc2ccccc21 (stereo not drawn) [drawing 1395],0.0316 µM,
O=C(NN1CCCCC1)c1ccc2c(c1)N=C(c1cccc(Cl)c1)c1ccccc1O2,0.0398 µM,
O=C(NCc1ccncc1)c1ccc2c(c1)N=C(c1ccc(Br)cc1)c1ccccc1S2 [drawing 1453],0.0501 µM,80%
O=C(NN1CCCCCC1)c1ccc2c(c1)N=C(c1ccc(Cl)cc1)c1ccccc1S2 [drawing 1463],0.00794 µM,82%
O=C(NCCCc1ccccc1)c1ccc2c(c1)N=C(c1ccccc1)c1ccccc1S2 [drawing 1450],0.00794 µM,
O=C(Cc1ccccc1)NNC(=O)c1ccc2c(c1)N=C(c1ccc(Cl)cc1)c1ccccc1S2 [drawing 1451],0.0501 µM,72%
O=C(NC1CCCC1)c1ccc2c(c1)N=C(c1cccc(F)c1)c1ccccc1S2 [drawing 1310],0.0251 µM,82%

SMILES,Ki,Binding rat Inh %
O=C(NCc1cccs1)c1ccc2c(c1)N=C(c1ccc(Cl)s1)c1ccccc1S2 [drawing 1256],0.00126 µM,98%
O=C(NCc1ccc(F)cc1)c1ccc2c(c1)N=C(c1ccccc1)c1ccccc1S2 [drawing 1352],0.00398 µM,
O=C(NCc1ccccc1Cl)c1ccc2c(c1)N=C(N1CCCCC1)c1ccccc1S2 [drawing 1366],0.0316 µM,
CCCCNC(=O)c1ccc2c(c1)N=C(c1ccc(Cl)cc1)c1ccc(Cl)cc1S2 [drawing 1187],0.0126 µM,94%
O=C(NCCc1cccnc1)c1ccc2c(c1)N=C(c1ccc(F)cc1)c1ccccc1S2 [drawing 1203],0.0126 µM,96%
CCCC1=Nc2cc(C(=O)NC3CCCC(C)C3C)ccc2Sc2ccccc21 (stereo not drawn) [drawing 1284],0.02 µM,
Cc1ccsc1C1=Nc2cc(C(=O)NC3CCC(F)(F)CC3)ccc2Sc2ccccc21 [drawing 1265],0.00158 µM,93%
CC(NC(=O)c1ccc2c(c1)N=C(C1CCCCC1)c1ccccc1S2)c1ccccc1 (stereo not drawn) [drawing 1431],0.00631 µM,
Cc1csc(CNC(=O)c2ccc3c(c2)N=C(c2ccc(F)cc2)c2ccccc2S3)c1 [drawing 1430],0.0501 µM,81%
C[C@@H]1CCC[C@H](C)N1NC(=O)c1ccc2c(c1)N=C(c1ccc(F)cc1)c1ccccc1S2 [drawing 1356],0.0316 µM,108%
O=C(NCc1ccncc1)c1ccc2c(c1)N=C(c1ccc(F)cc1)c1ccccc1S2 [drawing 1443],0.0501 µM,68%
O=C(NCCC(F)(F)F)c1ccc2c(c1)N=C(c1cccc(F)c1)c1ccccc1S2 [drawing 1337],0.00398 µM,108%
O=C(NC1CCCC1)c1ccc2c(c1)N=C(c1ccc(Cl)c(Cl)c1)c1ccccc1S2 [drawing 1399],0.00501 µM,78%
O=C(NCCc1cccnc1)c1ccc2c(c1)N=C(c1ccc(Cl)cc1)c1ccccc1S2 [drawing 1334],0.0251 µM,103%
O=C(NCCc1cccc(Cl)c1)c1ccc2c(c1)N=C(C1CCCCC1)c1ccccc1S2 [drawing 1499],0.01 µM,
O=C(NCCc1ccncc1)c1ccc2c(c1)N=C(c1cccc(F)c1)c1ccccc1S2 [drawing 1389],0.0316 µM,88%
O=C(NCCc1ccncc1)c1ccc2c(c1)N=C(c1ccc(Cl)c(Cl)c1)c1ccccc1S2 [drawing 1497],0.01 µM,123%
O=C(NN1CCCCC1)c1ccc2c(c1)N=C(c1ccc(Cl)s1)c1ccccc1S2 [drawing 1385],0.00501 µM,88%
CC(NC(=O)c1ccc2c(c1)N=C(c1ccc(Cl)cc1)c1ccccc1S2)c1ccccc1 (stereo not drawn) [drawing 1493],0.0631 µM,
O=C(NCc1ccc(F)cc1)c1ccc2c(c1)N=C(c1cccc(Cl)c1)c1ccccc1S2 [drawing 1391],0.00501 µM,
C[C@@H]1CCC[C@H](C)N1NC(=O)c1ccc2c(c1)N=C(c1ccc(Cl)cc1F)c1ccccc1S2 [drawing 1474],0.00794 µM,71%
CCCCNC(=O)c1cc2c(cc1O)Sc1ccccc1C(c1ccc(Cl)cc1)=N2 [drawing 1410],0.00631 µM,103%
